Laboratory results published in ChEMBL document CHEMBL1136464, “Array synthesis of novel lipodepsipeptide” (Bioorg Med Chem Lett, 2003).
≈ marks a conversion by molar mass, not a printed value.

What was measured:
Assay type in all cases: functional
Enterococcus faecium [1] = test: Antibacterial activity against Enterococcus faecium ATCC 49452 at 0 % serum
Staphylococcus aureus [2] = test: Antibacterial activity against methicillin susceptible staphylococcus aureus ATCC 29213 at 0 % serum
Enterococcus faecalis [3] = test: Antibacterial activity against Enterococcus faecalis ATCC 6569 at 0 % serum
Staphylococcus aureus [4] = test: Antibacterial activity against methicillin-resistant staphylococcus aureus ATCC 43300 at 0 % serum
Staphylococcus aureus [5] = test: Antibacterial activity against methicillin-resistant staphylococcus aureus ATCC 43300 at 10 % serum
Staphylococcus aureus [6] = test: Antibacterial activity against methicillin susceptible staphylococcus aureus ATCC 29213 at 10 % serum
Enterococcus faecalis [7] = test: Antibacterial activity against Enterococcus faecalis ATCC 6569 at 10 % serum; details: ATCC 6569, Serum
Enterococcus faecium [8] = test: Antibacterial activity against Enterococcus faecium ATCC 49452 at 10 % serum; details: ATCC 49452, Serum

Structure (SMILES)	MIC (Enterococcus faecium [1]) [µg/mL]	MIC (Staphylococcus aureus [2]) [µg/mL]	MIC (Enterococcus faecalis [3]) [µg/mL]	MIC (Staphylococcus aureus [4]) [µg/mL]	MIC (Staphylococcus aureus [5]) [µg/mL]	MIC (Staphylococcus aureus [6]) [µg/mL]	MIC (Enterococcus faecalis [7]) [µg/mL]	MIC (Enterococcus faecium [8]) [µg/mL]
CCCCCCCCCC(=O)N[C@@H](Cc1c[nH]c2ccccc12)C(=O)N[C@H](CC(N)=O)C(=O)N[C@@H](CCO)C(=O)N[C@@H]1C(=O)NCC(=O)N[C@@H](CCCNCc2ccc(OCc3ccccc3)c(Cl)c2)C(=O)N[C@@H](CC(=O)O)C(=O)N[C@H](C)C(=O)N[C@@H](CC(=O)O)C(=O)NCC(=O)N[C@H](CO)C(=O)N[C@@H]([C@H](C)CC(=O)O)C(=O)N[C@@H](CC(=O)c2ccccc2N)C(=O)O[C@@H]1C	0.39 (≈ 0.212 µM)	0.78 (≈ 0.425 µM)	0.78 (≈ 0.425 µM)	0.78 (≈ 0.425 µM)	3.13 (≈ 1.7 µM)	3.13 (≈ 1.7 µM)	12.5 (≈ 6.8 µM)	25 (≈ 13.6 µM)
CCCCCCCCCC(=O)N[C@@H](Cc1c[nH]c2ccccc12)C(=O)N[C@H](CC(N)=O)C(=O)N[C@@H](CCO)C(=O)N[C@@H]1C(=O)NCC(=O)N[C@@H](CCCNCc2cccc(F)c2)C(=O)N[C@@H](CC(=O)O)C(=O)N[C@H](C)C(=O)N[C@@H](CC(=O)O)C(=O)NCC(=O)N[C@H](CO)C(=O)N[C@@H]([C@H](C)CC(=O)O)C(=O)N[C@@H](CC(=O)c2ccccc2N)C(=O)O[C@@H]1C	12.5 (≈ 7.29 µM)	0.78 (≈ 0.455 µM)	6.25 (≈ 3.64 µM)	0.78 (≈ 0.455 µM)	0.56 (≈ 0.327 µM)	1.56 (≈ 0.91 µM)	12.5 (≈ 7.29 µM)	12.5 (≈ 7.29 µM)
CCCCCCCCCC(=O)N[C@@H](Cc1c[nH]c2ccccc12)C(=O)N[C@H](CC(N)=O)C(=O)N[C@@H](CCO)C(=O)N[C@@H]1C(=O)NCC(=O)N[C@@H](CCCNCc2ccc(OCc3ccc(F)cc3)c([N+](=O)[O-])c2)C(=O)N[C@@H](CC(=O)O)C(=O)N[C@H](C)C(=O)N[C@@H](CC(=O)O)C(=O)NCC(=O)N[C@H](CO)C(=O)N[C@@H]([C@H](C)CC(=O)O)C(=O)N[C@@H](CC(=O)c2ccccc2N)C(=O)O[C@@H]1C	1.56 (≈ 0.836 µM)	0.78 (≈ 0.418 µM)	0.78 (≈ 0.418 µM)	0.39 (≈ 0.209 µM)	3.13 (≈ 1.68 µM)	6.25 (≈ 3.35 µM)	12.5 (≈ 6.7 µM)	25 (≈ 13.4 µM)
CCCCCCCCCC(=O)N[C@@H](Cc1c[nH]c2ccccc12)C(=O)N[C@H](CC(N)=O)C(=O)N[C@@H](CCO)C(=O)N[C@@H]1C(=O)NCC(=O)N[C@@H](CCCNCc2ccc(OCc3ccccc3)cc2)C(=O)N[C@@H](CC(=O)O)C(=O)N[C@H](C)C(=O)N[C@@H](CC(=O)O)C(=O)NCC(=O)N[C@H](CO)C(=O)N[C@@H]([C@H](C)CC(=O)O)C(=O)N[C@@H](CC(=O)c2ccccc2N)C(=O)O[C@@H]1C	3.13 (≈ 1.74 µM)	0.78 (≈ 0.433 µM)	1.56 (≈ 0.865 µM)	0.78 (≈ 0.433 µM)	6.25 (≈ 3.47 µM)	6.25 (≈ 3.47 µM)	12.5 (≈ 6.93 µM)	25 (≈ 13.9 µM)
CCCCCCCCCC(=O)N[C@@H](Cc1c[nH]c2ccccc12)C(=O)N[C@H](CC(N)=O)C(=O)N[C@@H](CCO)C(=O)N[C@@H]1C(=O)NCC(=O)N[C@@H](CCCNCc2cccc([N+](=O)[O-])c2)C(=O)N[C@@H](CC(=O)O)C(=O)N[C@H](C)C(=O)N[C@@H](CC(=O)O)C(=O)NCC(=O)N[C@H](CO)C(=O)N[C@@H]([C@H](C)CC(=O)O)C(=O)N[C@@H](CC(=O)c2ccccc2N)C(=O)O[C@@H]1C	6.25 (≈ 3.59 µM)	0.78 (≈ 0.448 µM)	6.25 (≈ 3.59 µM)	0.78 (≈ 0.448 µM)	1.56 (≈ 0.896 µM)	1.56 (≈ 0.896 µM)	12.5 (≈ 7.18 µM)	12.5 (≈ 7.18 µM)
CCCCCCCCCC(=O)N[C@@H](Cc1c[nH]c2ccccc12)C(=O)N[C@H](CC(N)=O)C(=O)N[C@@H](CCO)C(=O)N[C@@H]1C(=O)NCC(=O)N[C@@H](CCCNCc2ccc(OCc3ccccc3)cc2O)C(=O)N[C@@H](CC(=O)O)C(=O)N[C@H](C)C(=O)N[C@@H](CC(=O)O)C(=O)NCC(=O)N[C@H](CO)C(=O)N[C@@H]([C@H](C)CC(=O)O)C(=O)N[C@@H](CC(=O)c2ccccc2N)C(=O)O[C@@H]1C	6.25 (≈ 3.44 µM)	3.13 (≈ 1.72 µM)	1.56 (≈ 0.858 µM)	1.56 (≈ 0.858 µM)	12.5 (≈ 6.87 µM)	25 (≈ 13.7 µM)	50 (≈ 27.5 µM)	100 (≈ 55 µM)
CCCCCCCCCC(=O)N[C@@H](Cc1c[nH]c2ccccc12)C(=O)N[C@H](CC(N)=O)C(=O)N[C@@H](CCO)C(=O)N[C@@H]1C(=O)NCC(=O)N[C@@H](CCCNCc2ccc(C(=O)N3CCN(c4ccccc4)CC3)cc2)C(=O)N[C@@H](CC(=O)O)C(=O)N[C@H](C)C(=O)N[C@@H](CC(=O)O)C(=O)NCC(=O)N[C@H](CO)C(=O)N[C@@H]([C@H](C)CC(=O)O)C(=O)N[C@@H](CC(=O)c2ccccc2N)C(=O)O[C@@H]1C	6.25 (≈ 3.32 µM)	0.78 (≈ 0.414 µM)	3.13 (≈ 1.66 µM)	0.78 (≈ 0.414 µM)	1.56 (≈ 0.828 µM)	1.56 (≈ 0.828 µM)	6.25 (≈ 3.32 µM)	6.25 (≈ 3.32 µM)
CCCCCCCCCC(=O)N[C@@H](Cc1c[nH]c2ccccc12)C(=O)N[C@H](CC(N)=O)C(=O)N[C@@H](CCO)C(=O)N[C@@H]1C(=O)NCC(=O)N[C@@H](CCCNCc2ccc(C(=O)N3CCN(Cc4ccccc4)CC3)cc2)C(=O)N[C@@H](CC(=O)O)C(=O)N[C@H](C)C(=O)N[C@@H](CC(=O)O)C(=O)NCC(=O)N[C@H](CO)C(=O)N[C@@H]([C@H](C)CC(=O)O)C(=O)N[C@@H](CC(=O)c2ccccc2N)C(=O)O[C@@H]1C	3.13 (≈ 1.65 µM)	0.78 (≈ 0.411 µM)	6.25 (≈ 3.29 µM)	0.39 (≈ 0.205 µM)	0.39 (≈ 0.205 µM)	0.78 (≈ 0.411 µM)	6.25 (≈ 3.29 µM)	6.25 (≈ 3.29 µM)
CCCCCCCCCC(=O)N[C@@H](Cc1c[nH]c2ccccc12)C(=O)N[C@H](CC(N)=O)C(=O)N[C@@H](CCO)C(=O)N[C@@H]1C(=O)NCC(=O)N[C@@H](CCCNCc2ccc(/C=C/C(=O)N3CCN(c4ccc(F)cc4)CC3)cc2)C(=O)N[C@@H](CC(=O)O)C(=O)N[C@H](C)C(=O)N[C@@H](CC(=O)O)C(=O)NCC(=O)N[C@H](CO)C(=O)N[C@@H]([C@H](C)CC(=O)O)C(=O)N[C@@H](CC(=O)c2ccccc2N)C(=O)O[C@@H]1C	3.13 (≈ 1.62 µM)	0.39 (≈ 0.202 µM)	1.56 (≈ 0.809 µM)	0.78 (≈ 0.404 µM)	3.13 (≈ 1.62 µM)	6.25 (≈ 3.24 µM)	12.5 (≈ 6.48 µM)	12.5 (≈ 6.48 µM)
CCCCCCCCCC(=O)N[C@@H](Cc1c[nH]c2ccccc12)C(=O)N[C@H](CC(N)=O)C(=O)N[C@@H](CCO)C(=O)N[C@@H]1C(=O)NCC(=O)N[C@@H](CCCNCc2ccc3ccccc3n2)C(=O)N[C@@H](CC(=O)O)C(=O)N[C@H](C)C(=O)N[C@@H](CC(=O)O)C(=O)NCC(=O)N[C@H](CO)C(=O)N[C@@H]([C@H](C)CC(=O)O)C(=O)N[C@@H](CC(=O)c2ccccc2N)C(=O)O[C@@H]1C	6.25 (≈ 3.58 µM)	0.78 (≈ 0.446 µM)	6.25 (≈ 3.58 µM)	0.78 (≈ 0.446 µM)	0.78 (≈ 0.446 µM)	1.56 (≈ 0.893 µM)	12.5 (≈ 7.15 µM)	25 (≈ 14.3 µM)
CCCCCCCCCC(=O)N[C@@H](Cc1c[nH]c2ccccc12)C(=O)N[C@H](CC(N)=O)C(=O)N[C@@H](CCO)C(=O)N[C@@H]1C(=O)NCC(=O)N[C@@H](CCCNCc2ccccc2N)C(=O)N[C@@H](CC(=O)O)C(=O)N[C@H](C)C(=O)N[C@@H](CC(=O)O)C(=O)NCC(=O)N[C@H](CO)C(=O)N[C@@H]([C@H](C)CC(=O)O)C(=O)N[C@@H](CC(=O)c2ccccc2N)C(=O)O[C@@H]1C	6.25 (≈ 3.65 µM)	0.78 (≈ 0.456 µM)	6.25 (≈ 3.65 µM)	0.78 (≈ 0.456 µM)	1.56 (≈ 0.911 µM)	3.13 (≈ 1.83 µM)	25 (≈ 14.6 µM)	6.25 (≈ 3.65 µM)
CCCCCCCCCC(=O)N[C@@H](Cc1c[nH]c2ccccc12)C(=O)N[C@H](CC(N)=O)C(=O)N[C@@H](CCO)C(=O)N[C@@H]1C(=O)NCC(=O)N[C@@H](CCCNCc2ccc(S(=O)(=O)NCc3ccc(C(F)(F)F)cc3)cc2)C(=O)N[C@@H](CC(=O)O)C(=O)N[C@H](C)C(=O)N[C@@H](CC(=O)O)C(=O)NCC(=O)N[C@H](CO)C(=O)N[C@@H]([C@H](C)CC(=O)O)C(=O)N[C@@H](CC(=O)c2ccccc2N)C(=O)O[C@@H]1C	0.39 (≈ 0.202 µM)	0.78 (≈ 0.403 µM)	0.78 (≈ 0.403 µM)	0.39 (≈ 0.202 µM)	0.78 (≈ 0.403 µM)	3.13 (≈ 1.62 µM)	6.25 (≈ 3.23 µM)	6.25 (≈ 3.23 µM)
CCCCCCCCCC(=O)N[C@@H](Cc1c[nH]c2ccccc12)C(=O)N[C@H](CC(N)=O)C(=O)N[C@@H](CCO)C(=O)N[C@@H]1C(=O)NCC(=O)N[C@@H](CCCNCc2ccc(S(=O)(=O)NCc3ccc(F)cc3)cc2)C(=O)N[C@@H](CC(=O)O)C(=O)N[C@H](C)C(=O)N[C@@H](CC(=O)O)C(=O)NCC(=O)N[C@H](CO)C(=O)N[C@@H]([C@H](C)CC(=O)O)C(=O)N[C@@H](CC(=O)c2ccccc2N)C(=O)O[C@@H]1C	1.56 (≈ 0.828 µM)	0.39 (≈ 0.207 µM)	1.56 (≈ 0.828 µM)	0.39 (≈ 0.207 µM)	0.78 (≈ 0.414 µM)	1.56 (≈ 0.828 µM)	3.13 (≈ 1.66 µM)	6.25 (≈ 3.32 µM)
CCCCCCCCCC(=O)N[C@@H](Cc1c[nH]c2ccccc12)C(=O)N[C@H](CC(N)=O)C(=O)N[C@@H](CCO)C(=O)N[C@@H]1C(=O)NCC(=O)N[C@@H](CCCNCc2ccccc2F)C(=O)N[C@@H](CC(=O)O)C(=O)N[C@H](C)C(=O)N[C@@H](CC(=O)O)C(=O)NCC(=O)N[C@H](CO)C(=O)N[C@@H]([C@H](C)CC(=O)O)C(=O)N[C@@H](CC(=O)c2ccccc2N)C(=O)O[C@@H]1C	6.25 (≈ 3.64 µM)	0.78 (≈ 0.455 µM)	6.25 (≈ 3.64 µM)	0.78 (≈ 0.455 µM)	0.78 (≈ 0.455 µM)	1.56 (≈ 0.91 µM)	12.5 (≈ 7.29 µM)	12.5 (≈ 7.29 µM)
CCCCCCCCCC(=O)N[C@@H](Cc1c[nH]c2ccccc12)C(=O)N[C@H](CC(N)=O)C(=O)N[C@@H](CCO)C(=O)N[C@@H]1C(=O)NCC(=O)N[C@@H](CCCNCc2ccccc2[N+](=O)[O-])C(=O)N[C@@H](CC(=O)O)C(=O)N[C@H](C)C(=O)N[C@@H](CC(=O)O)C(=O)NCC(=O)N[C@H](CO)C(=O)N[C@@H]([C@H](C)CC(=O)O)C(=O)N[C@@H](CC(=O)c2ccccc2N)C(=O)O[C@@H]1C	12.5 (≈ 7.18 µM)	0.78 (≈ 0.448 µM)	12.5 (≈ 7.18 µM)	0.78 (≈ 0.448 µM)	0.78 (≈ 0.448 µM)	1.56 (≈ 0.896 µM)	25 (≈ 14.4 µM)	25 (≈ 14.4 µM)
